Structures are written as SMILES.

The assay relates to rat bladder strip. Put plainly: in vitro rat bladder strip model: inhibition of 10 μM carbachol induced contraction. To be noted: 1 h; test compound at 3 μM, one hour incubation; 10 μM carbachol induced contraction of rat bladder strip; percent inhibition over controls, normalized for vehicle effects. Here is the method: The ability of the compounds of the present invention to relax smooth muscle tissue was assessed by their ability to inhibit carbachol induced contractions in mammalian smooth muscle tissue. More specifically, the compounds of the present invention were screened in an in vitro rat bladder strip model to estimate their inhibitory effects on 10 μM carbachol induced contraction of the rat bladder strip according to the following experimental protocol.
1. Bladder Strip Tissue Preparation
Male rats were sacrificed by decapitation, the bladder removed and cleaned of connective tissue. Strips of bladder were then cut from the bladder body and placed in organ baths, suspended between a fixed hook and a force transducer, containing oxygenated physiological buffer maintained at 37° C.
The bladder strips were primed by stimulating them with 10 μM carbachol to evoke a contraction. The strips were then washed multiple times with fresh physiological buffer and allowed to fully relax. Following a period of recovery, the strips were again challenged with 10 μM carbachol to produce a contraction; this contractile response served as control response. The strips were again washed multiple times and allowed to fully relax (45 minutes). Test compound (3 μM) or vehicle was then added to each organ bath. Following a one hour incubation period, the strips were again stimulated with 10 μM carbachol and the contractile response measured.
The percent inhibition of the carbachol response by the test compounds was calculated by comparing control and post-compound carbachol responses normalized for vehicle effects. The percentage inhibition for each compound at 3 μM concentration is provided below in Table 1.
As usually defined, the inhibition is the share of the control response that was lost under treatment. Lower therefore signals a response near the control. Take `O=c1[nH]c(-c2ccc(Br)s2)nn1-c1cc(Cl)ccc1O` [Example 1, 5-(5-Bromothiophen-2-yl)-2-(5-chloro-2-hydroxyphenyl)-2,4-dihydro-[1,2,4]triazol-3-one]: the inhibition at 3 µM was 35 to 50%.

The compound `O=c1[nH]c(-c2ccc(Cl)s2)nn1-c1cc(Cl)ccc1O` [Example 2, 2-(5-Chloro-2-hydroxyphenyl)-5-(5-chlorothiophen-2-yl)-2,4-dihydro-[1,2,4]triazol-3-one] had an inhibition at 3 µM of 35 to 50%.

Consider `O=c1[nH]c(-c2ccc(I)s2)nn1-c1cc(Cl)ccc1O` [Example 3, 2-(5-Chloro-2-hydroxyphenyl)-5-(5-iodothiophen-2-yl)-2,4-dihydro-[1,2,4]triazol-3-one], for which the inhibition at 3 µM lay within 35 to 50%.

Take `O=c1[nH]c(-c2cc(Br)cs2)nn1-c1cc(Cl)ccc1O` [Example 4, 5-(4-Bromothiophen-2-yl)-2-(5-chloro-2-hydroxyphenyl)-2,4-dihydro-[1,2,4]triazol-3-one]: the inhibition at 3 µM fell in the range of 35 to 50%.

Compound `O=c1[nH]c(-c2cc(Cl)cs2)nn1-c1cc(Cl)ccc1O` [Example 5, 5-(4-Chlorothiophen-2-yl)-2-(5-chloro-2-hydroxyphenyl)-2,4-dihydro-[1,2,4]triazol-3-one] registered an inhibition at 3 µM of 35 to 50%.

The compound `O=c1[nH]c(-c2sccc2Br)nn1-c1cc(Cl)ccc1O` [Example 6, 5-(3-Bromothiophen-2-yl)-2-(5-chloro-2-hydroxyphenyl)-2,4-dihydro-[1,2,4]triazol-3-one] registered an inhibition at 3 µM of 35 to 50%.

In turn, `O=c1[nH]c(-c2sccc2Cl)nn1-c1cc(Cl)ccc1O` [Example 7, 2-(5-Chloro-2-hydroxyphenyl)-5-(3-chlorothiophen-2-yl)-2,4-dihydro-[1,2,4]triazol-3-one] yielded an inhibition at 3 µM of 35 to 50%.

Regarding `O=c1[nH]c(-c2sccc2I)nn1-c1cc(Cl)ccc1O` [Example 8, 2-(5-Chloro-2-hydroxyphenyl)-5-(3-iodothiophen-2-yl)-2,4-dihydro-[1,2,4]triazol-3-one], the inhibition at 3 µM fell in the range of 20 to 35%.

`O=c1[nH]c(-c2cc(Br)c(Br)s2)nn1-c1cc(Cl)ccc1O` [Example 9, 2-(5-Chloro-2-hydroxyphenyl)-5-(4,5-dibromothiophen-2-yl)-2,4-dihydro-[1,2,4]triazol-3-one] displayed an inhibition at 3 µM of 5 to 20%.

For `O=c1[nH]c(-c2cc(Cl)c(Cl)s2)nn1-c1cc(Cl)ccc1O` [Example 10, 2-(5-Chloro-2-hydroxyphenyl)-5-(4,5-dichlorothiophen-2-yl)-2,4-dihydro-[1,2,4]triazol-3-one], the inhibition at 3 µM was in the range of 20 to 35%.

Take `O=c1[nH]c(-c2cc(Br)c(Cl)s2)nn1-c1cc(Cl)ccc1O` [Example 11, 5-(4-Bromo-5-chlorothiophen-2-yl)-2-(5-chloro-2-hydroxyphenyl)-2,4-dihydro-[1,2,4]triazol-3-one]: the inhibition at 3 µM lay in the range of 20 to 35%.

With `O=c1[nH]c(-c2scc(Br)c2Br)nn1-c1cc(Cl)ccc1O` [Example 12, 2-(5-Chloro-2-hydroxyphenyl)-5-(3,4-dibromothiophen-2-yl)-2,4-dihydro-[1,2,4]triazol-3-one], the inhibition at 3 µM lay within 20 to 35%.

Regarding `O=c1[nH]c(-c2scc(Cl)c2Cl)nn1-c1cc(Cl)ccc1O` [Example 13, 2-(5-Chloro-2-hydroxyphenyl)-5-(3,4-dichlorothiophen-2-yl)-2,4-dihydro-[1,2,4]triazol-3-one], the inhibition at 3 µM lay in the range of 35 to 50%.

As for `O=c1[nH]c(-c2sc(Br)cc2Br)nn1-c1cc(Cl)ccc1O` [Example 14, 2-(5-Chloro-2-hydroxyphenyl)-5-(3,5-dibromothiophen-2-yl)-2,4-dihydro-[1,2,4]triazol-3-one], the inhibition at 3 µM was in the range of 35 to 50%.

As to `O=c1[nH]c(-c2sc(Br)c(Br)c2Br)nn1-c1cc(Cl)ccc1O` [Example 15, 2-(5-Chloro-2-hydroxyphenyl)-5-(3,4,5-tribromothiophen-2-yl)-2,4-dihydro-[1,2,4]triazol-3-one], the inhibition at 3 µM lay within 5 to 20%.

In turn, `O=c1[nH]c(-c2sc(Cl)c(Cl)c2Cl)nn1-c1cc(Cl)ccc1O` [Example 16, 2-(5-Chloro-2-hydroxyphenyl)-5-(3,4,5-trichlorothiophen-2-yl)-2,4-dihydro-[1,2,4]triazol-3-one] came in with an inhibition at 3 µM of 20 to 35%.

Compound `Cc1sc(-c2nn(-c3cc(Cl)ccc3O)c(=O)[nH]2)cc1Br` [Example 17, 5-(4-Bromo-5-methylthiophen-2-yl)-2-(5-chloro-2-hydroxyphenyl)-2,4-dihydro-[1,2,4]triazol-3-one] displayed an inhibition at 3 µM of 20 to 35%.

The compound `O=c1[nH]c(-c2cc(Br)sc2Br)nn1-c1cc(Cl)ccc1O` [Example 18, 2-(5-Chloro-2-hydroxyphenyl)-5-(2,5-dibromothiophen-3-yl)-2,4-dihydro-[1,2,4]triazol-3-one] came in with an inhibition at 3 µM of 20 to 35%.

In the case of `O=c1[nH]c(-c2cc(Cl)sc2Cl)nn1-c1cc(Cl)ccc1O` [Example 19, 2-(5-Chloro-2-hydroxyphenyl)-5-(2,5-dichlorothiophen-3-yl)-2,4-dihydro-[1,2,4]triazol-3-one], the inhibition at 3 µM was 35 to 50%.

`C=CCc1cc(Cl)cc(-n2nc(-c3ccc(Br)s3)[nH]c2=O)c1O` [Example 20, 2-(3-Allyl-5-chloro-2-hydroxyphenyl)-5-(5-bromothiophen-2-yl)-2,4-dihydro-[1,2,4]triazol-3-one] gave an inhibition at 3 µM of 20 to 35%.

For `O=c1[nH]c(-c2ccc(Br)s2)nn1-c1cc(Cl)cc(Br)c1O` [Example 21, 2-(3-Bromo-5-chloro-2-hydroxyphenyl)-5-(5-bromothiophen-2-yl)-2,4-dihydro-[1,2,4]triazol-3-one], the inhibition at 3 µM was in the range of 20 to 35%.

In the case of `Cc1cc(Cl)cc(-n2nc(-c3ccc(Br)s3)[nH]c2=O)c1O` [Example 22, 5-(5-Bromothiophen-2-yl)-2-(5-chloro-2-hydroxy-3-methylphenyl)-2,4-dihydro-[1,2,4]triazol-3-one], the inhibition at 3 µM was 20 to 35%.

In the case of `O=c1[nH]c(-c2ccc(Br)s2)nn1-c1cc(Cl)cc(Cl)c1O` [Example 23, 5-(5-Bromothiophen-2-yl)-2-(3,5-dichloro-2-hydroxyphenyl)-2,4-dihydro-[1,2,4]triazol-3-one], the inhibition at 3 µM was in the range of 20 to 35%.

Consider `Cc1cc(O)c(-n2nc(-c3ccc(Br)s3)[nH]c2=O)cc1Cl` [Example 24, 5-(5-Bromothiophen-2-yl)-2-(5-chloro-2-hydroxy-4-methylphenyl)-2,4-dihydro-[1,2,4]triazol-3-one], for which the inhibition at 3 µM lay within 20 to 35%.

On to `O=c1[nH]c(-c2ccc(Br)s2)nn1-c1cc(Cl)c(Br)cc1O` [Example 25, 2-(4-Bromo-5-chloro-2-hydroxyphenyl)-5-(5-bromothiophen-2-yl)-2,4-dihydro-[1,2,4]triazol-3-one], for which the inhibition at 3 µM fell in the range of 20 to 35%.

`O=c1[nH]c(-c2ccc(Br)s2)nn1-c1cc(C(F)(F)F)ccc1O` [Example 26, 5-(5-Bromothiophen-2-yl)-2-(2-hydroxy-5-trifluoromethylphenyl)-2,4-dihydro-[1,2,4]triazol-3-one] had an inhibition at 3 µM of 35 to 50%.

In the case of `O=c1[nH]c(-c2ccc(Br)s2)nn1-c1cc(Br)ccc1O` [Example 27, 2-(5-Bromo-2-hydroxyphenyl)-5-(5-bromothiophen-2-yl)-2,4-dihydro-[1,2,4]triazol-3-one], the inhibition at 3 µM is 35 to 50%.

Compound `O=c1[nH]c(-c2ccc(Br)s2)nn1-c1cc(F)ccc1O` [Example 28, 5-(5-Bromothiophen-2-yl)-2-(5-fluoro-2-hydroxyphenyl)-2,4-dihydro-[1,2,4]triazol-3-one] registered an inhibition at 3 µM of 20 to 35%.

For `CC=Cc1cc(Cl)cc(-n2nc(-c3ccc(Br)s3)[nH]c2=O)c1O` [Example 29, 5-(5-Bromothiophen-2-yl)-2-(5-chloro-2-hydroxy-3-(prop-1-en-1-yl)phenyl)-2,4-dihydro-[1,2,4]triazol-3-one], the inhibition at 3 µM fell in the range of 20 to 35%.

Turning to `CCCc1cc(Cl)cc(-n2nc(-c3cccs3)[nH]c2=O)c1O` [Example 30, 2-(5-Chloro-2-hydroxy-3-propylphenyl)-5-(thiophen-2-yl)-2,4-dihydro-[1,2,4]triazol-3-one], the inhibition at 3 µM lay within 20 to 35%.

In the case of `O=c1[nH]c(-c2ccc(Cl)s2)nn1-c1cc(Br)ccc1O` [Example 31, 2-(5-Bromo-2-hydroxyphenyl)-5-(5-chlorothiophen-2-yl)-2,4-dihydro-[1,2,4]triazol-3-one], the inhibition at 3 µM is 20 to 35%.

The compound `O=c1[nH]c(-c2ccc(Cl)s2)nn1-c1cc(F)ccc1O` [Example 32, 5-(5-Chlorothiophen-2-yl)-2-(5-fluoro-2-hydroxyphenyl)-2,4-dihydro-[1,2,4]triazol-3-one] had an inhibition at 3 µM of 35 to 50%.

Values taken from patent US6613786B2, “Thiophenyl triazol-3-one derivatives as smooth muscle relaxants” (Bristol-Myers Squibb Company, priority 2001, dated 2003).
